Where two headings read alike, the source gives them in different places.
Columns and labels:
[1] = biological target: T1, hGIPR (Homo sapiens, UniProt P48546); assay: hGIPR CreLuc assay in 0.5% and 100% plasma (CHO CRE-luciferase reporter cells); type: cell-based
T1 construct: expressed in transfected cells; host or cells: CHO CRE-luciferase reporter cells
T1 sequence (P48546 22-466): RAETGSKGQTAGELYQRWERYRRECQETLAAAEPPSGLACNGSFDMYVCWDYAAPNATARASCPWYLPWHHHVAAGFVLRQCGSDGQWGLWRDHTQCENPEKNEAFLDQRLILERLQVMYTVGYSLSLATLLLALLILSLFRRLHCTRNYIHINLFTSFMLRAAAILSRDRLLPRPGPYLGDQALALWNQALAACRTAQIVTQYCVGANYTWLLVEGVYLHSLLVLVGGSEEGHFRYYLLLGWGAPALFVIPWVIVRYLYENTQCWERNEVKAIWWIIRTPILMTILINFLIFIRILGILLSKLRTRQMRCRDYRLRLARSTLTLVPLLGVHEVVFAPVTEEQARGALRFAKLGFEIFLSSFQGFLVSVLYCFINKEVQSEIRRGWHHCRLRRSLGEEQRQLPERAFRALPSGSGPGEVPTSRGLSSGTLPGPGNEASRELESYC

[2] = biological target: T2, hNPY2R (Homo sapiens, UniProt P49146); assay: hNPY2R CreLuc assay in 0.5% and 100% plasma (HEK-293 CRE-luciferase reporter cells); type: cell-based; settings: HEK-293 reporter cells
T2 construct: expressed in transfected cells; host or cells: HEK-293 CRE-luciferase reporter cells
T2 sequence (P49146 1-381): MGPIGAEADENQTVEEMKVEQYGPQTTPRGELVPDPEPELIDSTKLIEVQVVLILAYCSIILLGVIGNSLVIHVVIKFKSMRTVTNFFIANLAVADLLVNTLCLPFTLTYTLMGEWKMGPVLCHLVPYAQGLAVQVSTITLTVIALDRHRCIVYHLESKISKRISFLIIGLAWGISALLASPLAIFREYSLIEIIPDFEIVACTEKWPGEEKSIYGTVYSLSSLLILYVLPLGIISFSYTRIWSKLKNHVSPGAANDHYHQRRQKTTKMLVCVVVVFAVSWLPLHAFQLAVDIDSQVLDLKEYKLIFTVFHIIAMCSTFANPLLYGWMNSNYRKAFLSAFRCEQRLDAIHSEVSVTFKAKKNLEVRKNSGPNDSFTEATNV

[3] = Solubility in 0.1 M phosphate buffer at pH 7; type: physicochemical; settings: 0.1 M phosphate buffer at pH 7, 10 mg/mL final peptide concentration, shaking 2 hours at room temperature, peptides as TFA-salts; measured sample pH 6.5-7.0
[4] = Mouse PK after intravenous application; type: in vivo; settings: plasma, male NMRI mice, intravenous 30-60 nmol/kg, non-compartmental analysis
Outline: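 Male NMRI mice (30–40 g) dosed 30-60 nmol/kg by tail vein in 50 mM phosphate buffer pH 7.4/3.5% mannitol. Saphenous EDTA blood sampled from conscious animals up to 56 h; plasma peptide quantified by LC-MS. Parameters from non-compartmental analysis of individual profiles.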

[5] = test system: Normal NMRI Mice; assay: Effect on acute food intake in normal NMRI mice; type: in vivo; settings: male NMRI mice, single subcutaneous dose 100 nmol/kg, 24 hours food intake normalized to vehicle group
Method: Male NMRI mice were obtained from Janvier (Janvier Labs, France) or from Charles River (Charles River Research Models & Services Germany GmbH) at the age of 3 weeks. The animals get a microchip (Datamars, Slim Microchip T-SL) for individual identification after delivery. They were housed with 4 mice per cage under a 12/12 dark-light cycle, light off at 3 p.m. Room temperature was controlled to 21° C.+/−1° C. and humidity 60%+/−20%. Mice had ad libitum access to regular rodent chow (KLIBA Nafag 3040 or Altromin 1324, Brogaarden, Denmark) and tap water.
Latest transfer into the HM2-System of MBRose, Denmark (real-time monitoring system of food- and water intake) of the animals 5 days before study start, to allow acclimatization to experimental conditions. As the animals were uniquely identified with the microchips, each individual animal was identified by its own microchip upon entry and exit from the food channel via antennae. Randomization of the mice for each study group (n=8; age earliest 6 weeks old) was based on food intake (middle of last three days 24 h-interval) and bodyweight directly before start of the study. A vehicle treated (50 mM phosphate buffer pH 7.4 with 3.5% mannitol) group was included in each experiment. To have the same nutrition standard for each animal the food access was locked eight hours before dark phase. One hour before night, the animals were once treated subcutaneously with the test peptide. Food intake was reported hourly for a period of 24 hours.

[6] = biological target: T3, hGLP1R (Homo sapiens, UniProt P43220); assay: hGLP1R CreLuc assay in 0.5% and 100% plasma (HEK-293 CRE-luciferase reporter cells); type: cell-based; settings: HEK-293 reporter cells
T3 construct: expressed in transfected cells; host or cells: HEK-293 CRE-luciferase reporter cells

[7] = 0.5% human plasma, read-out: hGIPR 0.5% hP
[8] = 0.5% human plasma, read-out: hGLP1R 0.5% hP
[9] = 100% human plasma, read-out: hGIPR 100% hP

T3 sequence (P43220 24-463): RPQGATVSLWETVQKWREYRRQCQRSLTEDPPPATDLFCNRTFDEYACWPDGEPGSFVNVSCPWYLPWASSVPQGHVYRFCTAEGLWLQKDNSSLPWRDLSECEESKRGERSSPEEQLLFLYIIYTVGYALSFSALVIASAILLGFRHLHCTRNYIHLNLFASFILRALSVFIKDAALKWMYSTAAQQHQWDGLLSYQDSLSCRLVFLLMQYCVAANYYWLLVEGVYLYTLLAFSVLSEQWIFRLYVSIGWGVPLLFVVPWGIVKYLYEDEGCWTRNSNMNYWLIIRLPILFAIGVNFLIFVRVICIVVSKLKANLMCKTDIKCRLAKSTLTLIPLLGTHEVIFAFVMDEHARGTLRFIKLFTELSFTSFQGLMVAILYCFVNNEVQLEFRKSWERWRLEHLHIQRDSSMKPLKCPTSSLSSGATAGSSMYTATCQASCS

Row | EC50 [1, 7] [nM] | EC50 ([2]; 0.5% human plasma, read-out: hNPY2R 0.5% hP) [nM] | solubility at 2 h [3] [mg/mL] | MRT [4] [h] | EC50 [6, 8] [nM] | EC50 [1, 9] [nM] | EC50 ([2]; 100% human plasma, read-out: hNPY2R 100% hP) [nM] | EC50 ([6]; 100% human plasma, read-out: hGLP1R 100% hP) [nM] | Structure (SMILES) | Acute Food Intake 24 hours 100 nmol/kg [% CTL] [5] [% CTL]
1 | 0.2 | 7.1 | 9.2 | 12.8 |  |  |  |  | CC[C@H](C)[C@H](NC(=O)[C@H](CC(C)C)NC(=O)[C@H](Cc1c[nH]cn1)NC(=O)[C@H](CCCNC(=N)N)NC(=O)[C@@H](NC(=O)[C@H](Cc1ccccc1)NC(=O)[C@H](C)NC(=O)C(C)(C)NC(=O)[C@H](CCC(N)=O)NC(=O)[C@H](C)NC(=O)[C@H](CCC(N)=O)NC(=O)[C@H](CCCCN)NC(=O)[C@H](CCC(=O)O)NC(=O)[C@H](CC(C)C)NC(=O)C(C)(C)NC(=O)[C@@H](NC(=O)[C@H](CO)NC(=O)[C@H](Cc1ccc(O)cc1)NC(=O)[C@H](CC(=O)O)NC(=O)[C@H](CO)NC(=O)[C@@H](NC(=O)[C@H](Cc1ccccc1)NC(=O)[C@@H](NC(=O)CNC(=O)[C@H](CCC(=O)O)NC(=O)C(C)(C)NC(=O)[C@@H](N)Cc1ccc(O)cc1)[C@@H](C)O)[C@@H](C)O)[C@@H](C)CC)C(C)C)C(=O)N[C@@H](CC(N)=O)C(=O)N[C@@H](CCCCNC(=O)CCCCCNC(=O)CCCCCNC(=O)CC[C@H](NC(=O)CC[C@H](NC(=O)CC[C@H](NC(=O)CC[C@H](NC(=O)CC[C@H](NC(=O)CCCCCCCCCCCCCCCCCCC(=O)O)C(=O)O)C(=O)O)C(=O)O)C(=O)O)C(=O)O)C(=O)NC(C)(C)C(=O)N[C@H](C(=O)N[C@@H](CCCNC(=N)N)C(=O)N[C@@H](CCC(N)=O)C(=O)N[C@@H](CCCNC(=N)N)C(=O)N[C@@H](Cc1ccc(O)cc1)C(N)=O)[C@@H](C)O [Compound 106, Y-Aib-E-G-T-F-T-S-D-Y-S-I-Aib-L-E-K-Q-A-Q-Aib-A-F-V-R-H-L-I-N-K(1,3)-Aib-T-R-Q-R-Y-NH2.C20DA-gGlu-gGlu-gGlu-gGlu-gGlu-AHX-AHX(1,2)] | 60
2 | 0.1 |  | 10 | 14.4 | 0.3 | 1.7 |  |  | CC[C@H](C)[C@H](NC(=O)[C@H](Cc1ccccc1)NC(=O)[C@H](C)NC(=O)C(C)(C)NC(=O)[C@H](CCC(N)=O)NC(=O)[C@H](C)NC(=O)[C@H](CCC(N)=O)NC(=O)[C@H](CCCCN)NC(=O)[C@H](CCC(=O)O)NC(=O)[C@H](CC(C)C)NC(=O)[C@](C)(CC(C)C)NC(=O)[C@@H](NC(=O)[C@H](CO)NC(=O)[C@H](Cc1ccc(O)cc1)NC(=O)[C@H](CC(=O)O)NC(=O)[C@H](CO)NC(=O)[C@@H](NC(=O)[C@H](Cc1ccccc1)NC(=O)[C@@H](NC(=O)CNC(=O)[C@H](CCC(=O)O)NC(=O)C(C)(C)NC(=O)[C@@H](N)Cc1ccc(O)cc1)[C@@H](C)O)[C@@H](C)O)[C@@H](C)CC)C(=O)N[C@@H](CCCNC(=N)N)C(=O)N[C@@H](Cc1c[nH]cn1)C(=O)N[C@@H](CC(C)C)C(=O)N[C@H](C(=O)N[C@@H](CC(N)=O)C(=O)N[C@@H](CCCCNC(=O)[C@@H](N)CCCCNC(=O)CC[C@H](NC(=O)CC[C@H](NC(=O)CC[C@H](NC(=O)CC[C@H](NC(=O)CC[C@H](NC(=O)CC[C@H](NC(=O)CCCCCCCCCCCCCCCCCCC(=O)O)C(=O)O)C(=O)O)C(=O)O)C(=O)O)C(=O)O)C(=O)O)C(=O)NC(C)(C)C(=O)N[C@H](C(=O)N[C@@H](CCCNC(=N)N)C(=O)N[C@@H](CCC(N)=O)C(=O)N[C@@H](CCCNC(=N)N)C(=O)N[C@@H](Cc1ccc(O)cc1)C(N)=O)[C@@H](C)O)[C@@H](C)CC [Compound 53, Y-Aib-E-G-T-F-T-S-D-Y-S-I-aMeL-L-E-K-Q-A-Q-Aib-A-F-I-R-H-L-I-N-K(1,3)-Aib-T-R-Q-R-Y-NH2.C20DA-gGlu-gGlu-gGlu-gGlu-gGlu-gGlu-eLys(1,2)] | 47
3 | 0.4 |  | 6.7 | 21.2 |  |  | 60.8 |  | CC[C@H](C)[C@H](NC(=O)[C@H](CC(C)C)NC(=O)[C@H](Cc1c[nH]cn1)NC(=O)[C@H](CCCNC(=N)N)NC(=O)[C@@H](NC(=O)[C@H](Cc1ccccc1)NC(=O)[C@H](C)NC(=O)C(C)(C)NC(=O)[C@H](CCC(N)=O)NC(=O)[C@H](C)NC(=O)[C@H](CCC(N)=O)NC(=O)[C@H](CCCCN)NC(=O)[C@H](CCC(=O)O)NC(=O)[C@H](CC(C)C)NC(=O)C(C)(C)NC(=O)[C@@H](NC(=O)[C@H](CO)NC(=O)[C@H](Cc1ccc(O)cc1)NC(=O)[C@H](CC(=O)O)NC(=O)[C@H](CO)NC(=O)[C@@H](NC(=O)[C@H](Cc1ccccc1)NC(=O)[C@@H](NC(=O)CNC(=O)[C@H](CCC(=O)O)NC(=O)C(C)(C)NC(=O)[C@@H](N)Cc1ccc(O)cc1)[C@@H](C)O)[C@@H](C)O)[C@@H](C)CC)C(C)C)C(=O)N[C@@H](CC(N)=O)C(=O)N[C@@H](CCCCNC(=O)[C@@H](N)CCCCNC(=O)CC[C@H](NC(=O)CC[C@H](NC(=O)CC[C@H](NC(=O)CC[C@H](NC(=O)CC[C@H](NC(=O)CC[C@H](NC(=O)CCCCCCCCCCCCCCCCCCC(=O)O)C(=O)O)C(=O)O)C(=O)O)C(=O)O)C(=O)O)C(=O)O)C(=O)NC(C)(C)C(=O)N[C@H](C(=O)N[C@@H](CCCNC(=N)N)C(=O)N[C@@H](CCC(N)=O)C(=O)N[C@@H](CCCNC(=N)N)C(=O)N[C@@H](Cc1ccc(O)cc1)C(N)=O)[C@@H](C)O [Compound 125, Y-Aib-E-G-T-F-T-S-D-Y-S-I-Aib-L-E-K-Q-A-Q-Aib-A-F-V-R-H-L-I-N-K(1,3)-Aib-T-R-Q-R-Y-NH2.C20DA-gGlu-gGlu-gGlu-gGlu-gGlu-gGlu-eLys(1,2)] | 55
4 | 0.1 |  | 4.8 | 15.9 | 0.5 | 2.8 |  | 1.7 | CC[C@H](C)[C@H](NC(=O)[C@H](CC(C)C)NC(=O)[C@H](Cc1c[nH]cn1)NC(=O)[C@H](CCCNC(=N)N)NC(=O)[C@@H](NC(=O)[C@H](Cc1ccccc1)NC(=O)[C@H](C)NC(=O)C(C)(C)NC(=O)[C@H](CCC(N)=O)NC(=O)[C@H](C)NC(=O)[C@H](CCC(N)=O)NC(=O)[C@H](CCCCN)NC(=O)[C@H](CCC(=O)O)NC(=O)[C@H](CC(C)C)NC(=O)[C@](C)(CC(C)C)NC(=O)[C@@H](NC(=O)[C@H](CO)NC(=O)[C@H](Cc1ccc(O)cc1)NC(=O)[C@H](CC(=O)O)NC(=O)[C@H](CO)NC(=O)[C@@H](NC(=O)[C@H](Cc1ccccc1)NC(=O)[C@@H](NC(=O)CNC(=O)[C@H](CCC(=O)O)NC(=O)C(C)(C)NC(=O)[C@@H](N)Cc1ccc(O)cc1)[C@@H](C)O)[C@@H](C)O)[C@@H](C)CC)C(C)C)C(=O)N[C@@H](CC(N)=O)C(=O)N[C@@H](CCCCNC(=O)[C@@H](N)CCCCNC(=O)CC[C@H](NC(=O)CC[C@H](NC(=O)CC[C@H](NC(=O)CC[C@H](NC(=O)CC[C@H](NC(=O)CC[C@H](NC(=O)CCCCCCCCCCCCCCCCCCC(=O)O)C(=O)O)C(=O)O)C(=O)O)C(=O)O)C(=O)O)C(=O)O)C(=O)NC(C)(C)C(=O)N[C@H](C(=O)N[C@@H](CCCNC(=N)N)C(=O)N[C@@H](CCC(N)=O)C(=O)N[C@@H](CCCNC(=N)N)C(=O)N[C@@H](Cc1ccc(O)cc1)C(N)=O)[C@@H](C)O [Compound 150, Y-Aib-E-G-T-F-T-S-D-Y-S-I-aMeL-L-E-K-Q-A-Q-Aib-A-F-V-R-H-L-I-N-K(1,3)-Aib-T-R-Q-R-Y-NH2.C20DA-gGlu-gGlu-gGlu-gGlu-gGlu-gGlu-eLys(1,2)] | 46
